Test results published in patent US20040142888A1, “Modulators of RabGGT and methods of use thereof” (priority 2002, published 2004).

Each substance was assayed on HCT116 cells (assay: 3H-thymidine incorporation (proliferation) assay in HCT116 cells after siRNA treatment against RabGGT subunits). Conditions: 72 hours after siRNA/Lipofectamine 2000 treatment, average of three replicates.
Format: cell-based, human
Design: concentration or dose not given beside the values
Description: HCT-116 human colon tumor cells obtained from the ATCC were grown in RPMI culture medium supplemented with 10% heat inactivated FBS, 1× penicillin/streptomycin, and 25 mM HEPES, in an incubator maintained at 37° C. with CO2 at 6% and humidity at 95%. HCT116 cells were plated in 96 well plates at 2000 cells/100 μl media per well and incubated for 24 hours before RNAi treatment. For treatment, a 2× solution of Lipofectamine 2000/siRNA complexes was generated for each individual siRNA as follows. The siRNA oligonucleotides (Xeragon; Huntsville Ala.) were diluted to a final concentration of 1 μM in Optimem serum-free media (Invitrogen; Carlsbad, Calif.) and incubated for 5 minutes at room temperature. The Lipofectamine 2000 reagent (Invitrogen; Carlsbad, Calif.) was diluted to 10 μg/ml in Optimem serum-free media and incubated for 5 minutes at room temperature. Equal volumes of the 1 μM siRNA oligonucleotides and the 10 μg/ml Lipofectamine 2000 were mixed together, giving a 5× stock of siRNA/Lipofectamine 2000 complexes. After incubation for 20 minutes at room temperature, 1.5 volumes of RPMI medium containing 10% heat inactivated FBS was added to the 5× stock, resulting in a 2× stock of siRNA/Lipofectamine 2000 complexes. For RNAi treatment, 100 μof the 2× stock of siRNA/Lipofectamine 2000 complexes was added to each well containing HCT116 cells, to give a final concentration of 1× siRNA/Lipofectamine 2000 complexes. Cells were incubated for 72 hours prior to the proliferation assay. Three replicates were performed for each siRNA treatment.
The effect of RNAi treatment directed against RabGGT subunits on cellular proliferation was assayed using a 3H-thymidine incorporation assay. The principle of this assay is as follows: During S-phase of the cell cycle, cells incorporate thymidine into the new strand of genomic DNA. Tritiated thymidine can be added to the culture medium and will be incorporated into genomic DNA in proportion to the number of rounds of DNA synthesis that occur. Incorporation can be quantified following lysis of the cells and removal of unincorporated nucleotides. RNAi-treated cells prepared as described above were assayed for 3H-thymidine uptake as follows. The cells were pulsed with 3H-thymidine by addition of 20 μl of a 44 μCi/ml solution of 3H-thymidine in RPMI to each well, to obtain a final concentration of 3H-thymidine of 4 μCi/ml. After incubation for 3 h at 37° C., the medium was removed and 50 μl of 0.25% trypsin in phosphate buffered saline (140 mM NaCl, 2.7 mM KCl, 10 mM Na2HPO4 and 1.8 mM KH2PO4, pH 7.4) was added. After 10 minutes, the contents of the wells were harvested onto a 96-well GF/C filter plate (Whatman; Clifton N.J.) using a Hewlett Packard Filtermate. The filter plate was washed 10 times with distilled water, then left to dry overnight. After the addition of 50 μl of Microscint-20 scintillation fluid (Perkin Elmer; Boston, Mass.) per well, the filter plates were sealed and the amount of radioactivity retained on the filter was determined by scintillation counting. The average of the three replicate samples is reported.

Substance	3H-thy incorp. % of control [%]
Alpha-3: siRNA against human RabGGT-alpha, coding bases 1309-1332, SEQ ID NO:05 / NO:06 (chain 1 GAUGGAGUAUGCCGAGGUGTT; chain 2 CACCUCGGCAUACUCCAUCTT; chemistry not given here)	63
Alpha-1: siRNA against human RabGGT-alpha, coding bases 268-291, SEQ ID NO:01 / NO:02 (chain 1 GGCAGAACUGGGCUUCCUGTT; chain 2 CAGGAAGCCCAGUUCUGCCTT; chemistry not given here)	33
Beta-1: siRNA against human RabGGT-beta, coding bases 493-516, SEQ ID NO:07 / NO:08 (chain 1 CUUUGGCUUUGUUGGGGAATT; chain 2 UUCCCCAACAAAGCCAAAGTT; chemistry not given here)	77
Beta-2: siRNA against human RabGGT-beta, coding bases 662-685, SEQ ID NO:09 / NO:10 (chain 1 CGACAAUUACCCUCAGGCGTT; chain 2 CGCCUGAGGGUAAUUGUCGTT; chemistry not given here)	39
Alpha-2: siRNA against human RabGGT-alpha, coding bases 628-651, SEQ ID NO:03 / NO:04 (chain 1 AGAGCUGGAGCUGGUGCAGTT; chain 2 CUGCACCAGCUCCAGCUCUTT; chemistry not given here)	17
Beta-3: siRNA against human RabGGT-beta, coding bases 812-835, SEQ ID NO:11 / NO:12 (chain 1 GAUGAAGAAACGGGGGGAUTT; chain 2 AUCCCCCCGUUUCUUCAUCTT; chemistry not given here)	36
